The values below come from BindingDB's records for doi:10.1021/jm960276a (Texas A&M University, 1996).

The experiment deals with Integrin alpha-IIb/beta-3 (Homo sapiens, UniProt P08514+P05106). The experiment can be described thus: Inhibition of human platelet aggregation mediated by alpha llb/beta3 interaction with fibrinogen.

Square brackets hold non-standard residues; d marks the D form. Peptide text beside a SMILES is read from it. NMeR = CN[C@@H](CCCNC(=N)N)C(=O)O; 3Amb = NCc1cccc(C(=O)O)c1; dAbu = CC[C@@H](N)C(=O)O

Integrin alpha-IIb/beta-3, sequence (P05106 27-788 limits assumed): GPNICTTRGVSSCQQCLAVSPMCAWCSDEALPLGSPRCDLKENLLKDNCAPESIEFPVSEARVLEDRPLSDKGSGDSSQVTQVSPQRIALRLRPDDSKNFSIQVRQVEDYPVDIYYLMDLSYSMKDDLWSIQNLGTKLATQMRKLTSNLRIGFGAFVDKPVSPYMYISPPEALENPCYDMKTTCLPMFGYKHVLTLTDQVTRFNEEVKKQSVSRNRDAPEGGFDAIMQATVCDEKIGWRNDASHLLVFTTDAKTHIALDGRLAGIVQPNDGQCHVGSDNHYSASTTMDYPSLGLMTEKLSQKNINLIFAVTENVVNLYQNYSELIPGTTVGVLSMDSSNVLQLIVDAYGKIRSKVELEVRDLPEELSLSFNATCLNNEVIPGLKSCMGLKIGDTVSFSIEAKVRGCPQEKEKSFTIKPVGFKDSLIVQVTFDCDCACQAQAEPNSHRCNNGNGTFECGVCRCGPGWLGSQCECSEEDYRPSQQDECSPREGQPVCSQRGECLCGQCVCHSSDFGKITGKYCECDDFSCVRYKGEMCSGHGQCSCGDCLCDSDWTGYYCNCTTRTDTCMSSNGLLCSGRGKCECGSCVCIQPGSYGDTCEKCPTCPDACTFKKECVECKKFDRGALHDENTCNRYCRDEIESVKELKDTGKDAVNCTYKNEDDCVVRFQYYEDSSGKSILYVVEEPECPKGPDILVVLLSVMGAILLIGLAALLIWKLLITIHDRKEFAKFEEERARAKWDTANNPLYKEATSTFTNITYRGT
Integrin alpha-IIb/beta-3, sequence (P08514 32-887 limits assumed): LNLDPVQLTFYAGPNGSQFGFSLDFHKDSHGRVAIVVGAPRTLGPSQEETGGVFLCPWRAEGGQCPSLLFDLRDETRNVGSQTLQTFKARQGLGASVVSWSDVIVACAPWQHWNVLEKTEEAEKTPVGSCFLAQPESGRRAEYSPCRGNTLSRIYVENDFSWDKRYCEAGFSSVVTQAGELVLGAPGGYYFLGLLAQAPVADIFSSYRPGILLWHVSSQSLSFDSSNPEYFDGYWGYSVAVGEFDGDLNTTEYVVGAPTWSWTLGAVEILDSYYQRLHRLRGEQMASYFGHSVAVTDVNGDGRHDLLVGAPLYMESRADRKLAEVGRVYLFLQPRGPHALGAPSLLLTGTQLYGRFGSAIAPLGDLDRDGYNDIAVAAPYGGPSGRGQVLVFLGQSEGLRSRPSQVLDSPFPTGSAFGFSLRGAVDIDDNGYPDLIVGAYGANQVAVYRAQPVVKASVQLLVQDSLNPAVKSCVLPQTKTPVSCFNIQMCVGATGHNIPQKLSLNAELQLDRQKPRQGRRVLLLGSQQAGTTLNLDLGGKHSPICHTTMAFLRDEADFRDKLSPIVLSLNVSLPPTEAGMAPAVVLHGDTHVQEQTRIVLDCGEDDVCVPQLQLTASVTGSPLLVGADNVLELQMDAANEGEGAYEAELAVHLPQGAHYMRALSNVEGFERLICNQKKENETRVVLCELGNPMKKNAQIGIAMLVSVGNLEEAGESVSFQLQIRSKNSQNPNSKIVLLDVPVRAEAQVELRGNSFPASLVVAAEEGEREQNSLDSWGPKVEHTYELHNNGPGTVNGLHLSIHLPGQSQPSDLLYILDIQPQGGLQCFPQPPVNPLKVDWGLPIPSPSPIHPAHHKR
Integrin alpha-IIb/beta-3, sequence (P08514 891-1039 limits assumed): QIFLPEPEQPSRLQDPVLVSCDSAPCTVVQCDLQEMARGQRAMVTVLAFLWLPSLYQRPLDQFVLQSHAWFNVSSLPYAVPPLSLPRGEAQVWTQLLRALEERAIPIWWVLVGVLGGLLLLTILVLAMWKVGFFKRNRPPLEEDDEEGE

For the compound `N=C(N)NCCC[C@@H]1NC(=O)[C@H](CC(=O)O)NC(=O)CNC(=O)[C@H](CCCNC(=N)N)NC(=O)[C@H](CC(=O)O)NC(=O)CNC1=O` [[(2S,5R,11R,14S)-11-Carboxymethyl-5,14-bis-(3-guanidino-propyl)-3,6,9,12,15,18-hexaoxo-1,4,7,10,13,16hexaaza-cyclooctadec-2-yl]-acetic acid], the IC50 (as a rule, the concentration that gives 50% inhibition) was over 100 µM.

Take `N=C(N)NCCC[C@H](NC(=O)[C@H](CC(=O)O)NC(=O)CNC(=O)[C@@H](N)CCCNC(=N)N)C(=O)NCC(=O)N[C@@H](CC(=O)O)C(=O)O` [(S)-2-[2-((S)-2-{(S)-2-[2-((S)-2-Amino-5-guanidino-pentanoylamino)-acetylamino]-3-carboxy-propionylamino}-5-guanidino-pentanoylamino)-acetylamino]-succinic acid] (H-RGDRGD-OH): the IC50 is over 100 µM.

Compound `N=C(N)NCCC[C@@H]1NC(=O)[C@H](CC(=O)O)NC(=O)CNC(=O)[C@H](CCCNC(=N)N)NC(=O)[C@@H](CC(=O)O)NC(=O)CNC1=O` [[(2S,5R,11S,14S)-11-Carboxymethyl-5,14-bis-(3-guanidino-propyl)-3,6,9,12,15,18-hexaoxo-1,4,7,10,13,16hexaaza-cyclooctadec-2-yl]-acetic acid] returned an IC50 of over 100 µM.

The compound `CC[C@H]1NC(=O)c2cccc(c2)CNC(=O)[C@H](CC(=O)O)NC(=O)CNC(=O)[C@H](CCCN=C(N)N)N(C)C1=O` [DMP-728] (cyclo([NMeR]GD[3Amb][dAbu])) displayed an IC50 of 0.02 µM.
